Data on 10 molecules can be found in patent US20240398813A1, “PHARMACEUTICAL COMPOSITION FOR PREVENTING OR TREATING OVERACTIVE BLADDER” (GWANGJU INSTITUTE OF SCIENCE AND TECHNOLOGY, priority 2021, published 2024).

Several values for one entry are separate records, joined by “and”; a condition that tells them apart may be missing. Identical values can stand only once.

The experiment concerns the target T1, hyperactive mutant BKCa channels (hSlo G803D/N806K) stably expressed in AD 293 cells (Homo sapiens, UniProt Q12791, G856D/N859K).
T1 construct: expressed in transfected cells
The experiment can be described thus: Cell-based fluorescence assay (FluxOR Potassium Ion Channel Assay) of BKCa channel activation. More on the design: key to Channel activity increase for 80 s (ΔRFU) at 6 μM: ratio of ΔRFU (RFU at 100 s − 20 s) to the same ΔRFU for vehicle. Particulars: for Initial velocity of channel activation for 4 s (vi) at 6 μM: first 4 s after channel stimulation; for Channel activity increase for 80 s (ΔRFU) at 6 μM: normalized by vehicle; for EC50: fit of dose-response curve of initial rates, read-out: Apparent EC50 based on vi; for activation effect on the BKCa channels at a single concentration: 3 μM. How it is done: AD 293 cells, which are derivatives of the commonly used HEK 293 cell line and stably express hyperactive mutant BKCa channels (hSlo G803D/N806K) to sensitively detect the effect (Lee et al., 2013), were cultured in Dulbecco' modified Eagle medium (Hyclone, Logan, Utah, […]) supplemented with 10% fetal bovine serum, and selected with 1 mg/mL Geneticin (Gibco, Amarillo, TX, USA). 20,000 cells per well were seeded on a 96-well clear-bottom black plate (Corning, New York, NY, USA) coated with poly-D-lysine (Gibco). BKCa channel activity was measured using the cell-based fluorescence assay, FluxOR Potassium Ion Channel Assay (Thermo Fisher Scientific, Waltham, MA, USA). Experimental procedures were performed according to the manufacturer's instructions. The cells were treated with test compounds dissolved in assay buffer for 15 minutes. Fluorescence was measured using a FlexStation3 multimode microplate reader (Molecular Devices, Silicon Valley, CA, USA) and SoftMax Pro (Molecular Devices). Excitation and emission wavelengths were set to 485 nm and 528 nm, respectively. Fluorescence signals were acquired every 2 seconds for 120 seconds and normalized by the relative fluorescence unit (RFU). The efficacy of a channel activator was determined by analyzing changes (ΔRFU) in the RFU for 80 seconds after channel stimulation.
Activation effects of the synthesized compounds on BKCa channels were evaluated using cell-based fluorescence assay. NS11021 was used as the positive control. The effects were determined based on the initial rate (vi) of channel activation and the apparent EC50 value obtained from fitting data of the dose-response curve. Here, Vi means change values for 4 seconds at the start of channel opening (vi={RFU(t=24 s)−RFU(t=20 s)}/4 s). […]

T1 sequence (Q12791 whole entry G856D/N859K): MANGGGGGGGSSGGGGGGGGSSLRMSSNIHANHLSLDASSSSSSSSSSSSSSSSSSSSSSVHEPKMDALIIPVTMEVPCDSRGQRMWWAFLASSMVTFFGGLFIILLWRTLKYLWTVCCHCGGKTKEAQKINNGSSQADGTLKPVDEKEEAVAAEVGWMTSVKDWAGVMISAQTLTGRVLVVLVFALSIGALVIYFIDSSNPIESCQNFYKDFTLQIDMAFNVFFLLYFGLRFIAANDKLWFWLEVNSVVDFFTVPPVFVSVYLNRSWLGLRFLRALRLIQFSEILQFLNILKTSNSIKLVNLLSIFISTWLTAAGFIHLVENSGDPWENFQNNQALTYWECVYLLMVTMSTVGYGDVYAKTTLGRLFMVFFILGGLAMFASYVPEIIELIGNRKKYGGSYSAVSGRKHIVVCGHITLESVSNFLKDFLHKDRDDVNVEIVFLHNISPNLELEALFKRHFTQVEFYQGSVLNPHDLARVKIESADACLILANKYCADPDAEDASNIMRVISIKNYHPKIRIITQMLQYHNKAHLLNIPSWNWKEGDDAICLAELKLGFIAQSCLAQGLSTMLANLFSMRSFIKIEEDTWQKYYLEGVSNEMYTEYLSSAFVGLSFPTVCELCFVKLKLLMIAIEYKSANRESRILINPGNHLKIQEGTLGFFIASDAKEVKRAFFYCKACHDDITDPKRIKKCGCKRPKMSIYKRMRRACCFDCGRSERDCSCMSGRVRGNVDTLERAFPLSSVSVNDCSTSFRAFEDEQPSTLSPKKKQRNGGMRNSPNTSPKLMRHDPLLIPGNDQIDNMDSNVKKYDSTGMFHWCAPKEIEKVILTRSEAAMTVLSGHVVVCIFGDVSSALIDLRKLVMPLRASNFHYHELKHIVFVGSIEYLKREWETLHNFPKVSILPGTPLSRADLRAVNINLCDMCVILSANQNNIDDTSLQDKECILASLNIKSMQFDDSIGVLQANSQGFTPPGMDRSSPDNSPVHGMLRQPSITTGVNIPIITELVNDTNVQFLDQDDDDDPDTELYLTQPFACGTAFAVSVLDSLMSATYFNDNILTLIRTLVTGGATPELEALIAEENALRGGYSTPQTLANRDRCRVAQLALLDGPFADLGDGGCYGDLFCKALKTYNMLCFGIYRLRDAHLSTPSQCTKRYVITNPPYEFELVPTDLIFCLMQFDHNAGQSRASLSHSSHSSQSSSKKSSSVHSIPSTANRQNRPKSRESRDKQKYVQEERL

Regarding `Cc1ccc(NC(=O)c2sc(=S)n3c2[nH]c(=O)c2cc(Br)ccc23)cc1` [Compound 203, 7-bromo-5-oxo-1-thioxo-N-(p-tolyl)-4,5-dihydro-1H-thiazolo[3,4-a]quinazoline-3-carboxamide], the “Initial velocity of channel activation for 4 s (vi) at 6 μM” value (“Initial velocity of channel activation” for short) is 0.71 s⁻¹ and the “Channel activity increase for 80 s (ΔRFU) at 6 μM” value stood at 1.41.

A word on the EC50: it is the concentration that produces a half-maximal response. Regarding `COc1cccc(NC(=O)c2sc(=S)n3c2[nH]c(=O)c2cc(Br)ccc23)c1` [Compound 204, 7-bromo-N-(3-methoxyphenyl)-5-oxo-1-thioxo-4,5-dihydro-1H-thiazolo[3,4-a]quinazoline-3-carboxamide], the “Initial velocity of channel activation” value worked out at 6.00 s⁻¹, the “Channel activity increase for 80 s (ΔRFU) at 6 μM” value is given as 3.35 and the EC50 amounted to 6.6 µM.

Consider `O=C(Nc1cccc(O)c1)c1sc(=S)n2c1[nH]c(=O)c1cc(Br)ccc12` [Compound 205, 7-bromo-N-(3-hydroxyphenyl)-5-oxo-1-thioxo-4,5-dihydro-1H-thiazolo[3,4-a]quinazoline-3-carboxamide], for which the “Initial velocity of channel activation” value worked out at 4.03 s⁻¹, the “Channel activity increase for 80 s (ΔRFU) at 6 μM” value was 4.88 and the EC50 stood at 11.2 µM.

Take `O=C(Nc1cccc(F)c1)c1sc(=S)n2c1[nH]c(=O)c1cc(Br)ccc12` [Compound 206, 7-bromo-N-(3-fluorophenyl)-5-oxo-1-thioxo-4,5-dihydro-1H-thiazolo[3,4-a]quinazoline-3-carboxamide]: the “BKCa activity” value is reported as “significant improvement”, the “Initial velocity of channel activation” value was 12.55 s⁻¹, the “Channel activity increase for 80 s (ΔRFU) at 6 μM” value was 2.85 and the half-maximal effective concentration (EC50) stood at 1.14 µM.

Turning to `O=C(Nc1cccc(Cl)c1)c1sc(=S)n2c1[nH]c(=O)c1cc(Br)ccc12` [Compound 207, 7-bromo-N-(3-chlorophenyl)-5-oxo-1-thioxo-4,5-dihydro-1H-thiazolo[3,4-a]quinazoline-3-carboxamide], the “Initial velocity of channel activation” value turned out to be 16.12 s⁻¹, the “Channel activity increase for 80 s (ΔRFU) at 6 μM” value came to 3.56 and the EC50 came out at 4.85 µM.

As for `O=C(Nc1cccc(OC(F)(F)F)c1)c1sc(=S)n2c1[nH]c(=O)c1cc(Br)ccc12` [Compound 209, 7-bromo-5-oxo-1-thioxo-N-(3-(trifluoromethoxy)phenyl)-4,5-dihydro-1H-thiazolo[3,4-a]quinazoline-3-carboxamide], the “Initial velocity of channel activation” value was 14.78 s⁻¹, the “Channel activity increase for 80 s (ΔRFU) at 6 μM” value stood at 4.37 and the EC50 was found to be 3.82 µM.

As for `O=C(Nc1cc(C(F)(F)F)cc(C(F)(F)F)c1)c1sc(=S)n2c1[nH]c(=O)c1cc(Br)ccc12` [Compound 210, N-(3,5-bis(trifluoromethyl)phenyl)-7-bromo-5-oxo-1-thioxo-4,5-dihydro-1H-thiazolo[3,4-a]quinazoline-3-carboxamide], the “Initial velocity of channel activation” value is 2.08 s⁻¹, the “Channel activity increase for 80 s (ΔRFU) at 6 μM” value was 2.28 and the EC50 was 17.3 µM.

In the case of `FC(F)(F)c1cc(NC(=S)Nc2ccc(Br)cc2-c2nn[nH]n2)cc(C(F)(F)F)c1` [NS11021, reference compound], the “activation effect on the BKCa channels at a single concentration” value (shortened to “activation effect on the BKCa channels”) is “significant activation effects”; the “Initial velocity of channel activation” value is 1.63 s⁻¹; the “Channel activity increase for 80 s (ΔRFU) at 6 μM” value is 1.86; the EC50 was 14.9 µM and 14.3 µM.

`C=C(C)[C@H](CC=C(C)C)Cc1c(O)cc(OC)c2c1O[C@H](c1ccc(O)cc1O)CC2=O` [kurarinone, reference compound]: the “activation effect on the BKCa channels” value is reported as “significant activation effects”.

For `CC(=O)c1c(O)c(C)c(O)c(Cc2c(O)c3c(c(C(=O)/C=C/c4ccccc4)c2O)OC(C)(C)C=C3)c1O` [rottlerin, reference compound], the “activation effect on the BKCa channels” value is “significant activation effects”.
